Values of other authors as cited in patent US20050228180A1, “Alpha, omega-dicarboximide derivatives as useful uro-selective a1a adrenoceptor blockers” (priority 2002, published 2005).

Molecular target: α1-adrenoceptor
Conditions: background statement; cited from earlier work

COc1cc2nc(N3CCN(C(=O)c4ccco4)CC3)nc(N)c2cc1OC [prazosin]
α1-adrenergic blocking activity (pKi): > 8
